Assay results taken from patent US20230399341A1, “7-PHENYL SUBSTITUTED 2-AMINOQUINAZOLINE INHIBITORS OF HPK1” (MERCK SHARP & DOHME LLC, priority 2020, published 2023).
pIC50: −log10 of the molar value.

Biological target: T1, Human HPK1, catalytic domain (Homo sapiens, UniProt Q92918)
T1 sequence (Q92918 1-346): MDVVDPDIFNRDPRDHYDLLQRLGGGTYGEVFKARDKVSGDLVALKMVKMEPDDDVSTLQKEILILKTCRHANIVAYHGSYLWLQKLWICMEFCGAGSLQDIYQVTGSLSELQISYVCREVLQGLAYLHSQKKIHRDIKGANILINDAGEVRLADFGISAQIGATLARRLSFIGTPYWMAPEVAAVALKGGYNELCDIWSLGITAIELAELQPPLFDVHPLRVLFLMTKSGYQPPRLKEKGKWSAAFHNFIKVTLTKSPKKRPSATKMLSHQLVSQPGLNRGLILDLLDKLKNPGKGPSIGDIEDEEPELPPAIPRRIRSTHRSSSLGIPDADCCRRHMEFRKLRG
Assay: HPK1-SLP76 TR-FRET Assay
Type: biochemical
Conditions: 75 pM HPK1, ATP 10 uM, SLP76 10 nM, 30 min pre-incubation, 60 min reaction

`Cc1c(-c2cc3nc(Nc4ccc(CC(C)(C)O)cc4)ncc3c(N)c2F)cnc2c1NCCO2` [Compound 2-178, 1-(4-{[5-amino-6-fluoro-7-(8-methyl-2,3-dihydro-1H-pyrido[2,3-b][1,4]oxazin-7-yl)quinazolin-2-yl]amino}phenyl)-2-methylpropan-2-ol] gave a pIC50 of 10.03.

`COc1cc2c(cc1Nc1ncc3ccc(N4CC(C)(CO)OC4=O)cc3n1)CN(C)CC2` (racemic) [Compound 3-7, (S and R)-5-(hydroxymethyl)-3-{2-[(6-methoxy-2-methyl-1,2,3,4-tetrahydroisoquinolin-7-yl)amino]quinazolin-7-yl}-5-methyl-1,3-oxazolidin-2-one] showed a pIC50 of 7.34.

`Cc1ccc(F)cc1-c1cc2nc(Nc3ccc(CS(C)(=O)=O)cc3)ncc2c(N)c1F` [Compound 2-172, 6-fluoro-7-(5-fluoro-2-methylphenyl)-N~2~-{4-[(methylsulfonyl)methyl]phenyl}quinazoline-2,5-diamine] was tested, and the pIC50 was 7.61.

`COc1cc2c(cc1Nc1ncc3ccc(N[C@H]4CCN(C(=O)C5CC5)C4)cc3n1)CN(C)CC2` [Compound 3-22, cyclopropyl[(3S)-3-({2-[(6-meth-oxy-2-methyl-1,2,3,4-tetrahydro-isoquinolin-7-yl)amino]quinaz-olin-7-yl}amino)pyrrolidin-1-yl]-methanone] showed a pIC50 of 6.27.

`COc1nc(C)ccc1Nc1ncc2c(N)c(F)c(-c3cnc4c(c3C)NCCO4)cc2n1` [Compound 2-66, 6-fluoro-N~2~-(2-methoxy-6-methylpyridin-3-yl)-7-(8-methyl-2,3-dihydro-1H-pyrido[2,3-b][1,4]oxazin-7-yl)quinazoline-2,5-diamine] gave a pIC50 of 9.14.

With `COc1cc2c(cc1Nc1ncc3ccc(-c4c(C)cccc4F)cc3n1)CNCC2` [Compound 1-94, 7-(2-fluoro-6-methylphenyl)-N-(6-methoxy-1,2,3,4-tetrahydroisoquinolin-7-yl)quinazolin-2-amine] the pIC50 was 7.09.

In the case of `Cc1c(-c2cc3nc(Nc4ccccc4OC(F)(F)F)ncc3c(N)c2F)cnc2c1NCCO2` [Compound 2-8, 6-fluoro-7-(8-methyl-2,3-dihydro-1H-pyrido[2,3-b][1,4]oxazin-7-yl)-N~2~- [2-(trifluoromethoxy)phenyl] quinazoline-2,5-diamine], the pIC50 was 6.94.

In the case of `CNC(=O)CNc1ccc2cnc(Nc3cc4c(cc3OC)CCN(C)C4)nc2c1` [Compound 3-70, N~2~-{2-[(6-methoxy-2-methyl-1,2,3,4-tetrahydroisoquinolin-7-yl)amino]quinazolin-7-yl}-N-methylglycinamide], the pIC50 was 6.41.

For `COc1cc2c(cc1Nc1ncc3ccc(-c4cccc(C(=O)N5CCCC5)c4)cc3n1)CNCC2` [Compound 1-86, (3-{2-[(6-methoxy-1,2,3,4-tetrahydroisoquinolin-7-yl)amino]quinazolin-7-yl}phenyl)(pyrrolidin-1-yl)methanone], the pIC50 was 7.36.

`Cc1c(-c2cc3nc(Nc4ccccc4F)ncc3c(N)c2F)cnc2c1NCCO2` [Compound 2-22, 6-fluoro-N~2~-(2-fluorophenyl)-7-(8-methyl-2,3-dihydro-1H-pyrido[2,3-b][1,4]oxazin-7-yl)quinazoline-2,5-diamine] was tested, and the pIC50 was 9.16.

`COc1cc2c(cc1Nc1ncc3ccc(-c4cncc(NS(C)(=O)=O)c4)cc3n1)CNCC2` [Compound 1-37, N-(5-{2-[(6-methoxy-1,2,3,4-tetrahydroisoquinolin-7-yl)amino]quinazolin-7-yl}pyridin-3-yl)methanesulfonamide] showed a pIC50 of 7.55.

`COc1cc2c(cc1Nc1ncc3ccc(N[C@H]4CCN(C)C4=O)cc3n1)CN(C)CC2` [Compound 3-49, (3S)-3-({2-[(6-methoxy-2-meth-yl-1,2,3,4-tetrahydroisoquinolin-7-yl)amino]quinazolin-7-yl}-amino)-1-methylpyrrolidin-2-one] was tested, and the pIC50 was 7.01.

`COc1cc(CS(=O)(=O)C(C)C)ccc1Nc1ncc2c(N)c(F)c(-c3cnc4c(c3C)NCCO4)cc2n1` [Compound 2-168, 6-fluoro-N~2~-(2-methoxy-4-{[(propan-2-yl)sulfonyl]methyl}phenyl)-7-(8-methyl-2,3-dihydro-1H-pyrido[2,3-b][1,4]oxazin-7-yl)quinazoline-2,5-diamine] was tested, and the pIC50 was 9.98.
